# What was measured:
# Assay in all cases: Herbicidal activity, pot culture method (primary and secondary screening test)
# Type in all cases: in vivo
# Conditions in all cases: primary screening, pot culture, 150 g/ha, sprayed at 3-leaf stage, result 15 days later
# [1] = tested on: abutilon theophrasti
# Text: (§1) This test example is for describing the herbicidal activity inhibition ratio (%) (the dose is 150 g/ha) of the compound with a structure shown in Formula (I). Primary screening test (pot culture method): The test targets are abutilon theophrasti, digitaria sanguinalis, amaranthus retroflexus, echinochloa crusgalli, eclipta prostrata and setaria viridis. Take flowerpots with an inner diameter of 6 cm, put composite soil (vegetable garden soil:seedling matrix=1:2, v/v) into them till 3⁄4 of flowerpot height, directly sow the above six weed targets (budding rate>85%), cover them with 0.2 cm thick soil, and keep them for future use when the weeds grow to 3-leaf stage. Each compound is dissolved in N,N-dimethylformamide at a dose of 150 g/ha and diluted with distilled water into a 0.2 g/L solution. The solution is sprayed through an automatic spray tower. After the solution on weed leaves is aired dry, the flowerpots are moved into a greenhouse for cultivation. The result is investigated 15 days later. By the same method adopted in primary screening test, a secondary screening test is done on some typical compounds, such as: 5, 6, 20, 21, 23, 34, 47, 65, 66, 70 and 91 at a reduced dose, and the test result is compared with mesotrione which is commercially available and has a good herbicidal effect. The test method is same as that adopted in primary screening test. Mesotrione is bought from Hubei […] Chemical Co., Ltd.
# [2] = tested on: amaranthus retroflexus
# Text: as §1
# [3] = tested on: digitaria sanguinalis
# Text: as §1
# [4] = tested on: echinochloa crusgalli
# Text: as §1
# [5] = tested on: eclipta prostrata
# Text: as §1
# [6] = tested on: setaria viridis
# Text: as §1
SMILES,"herbicidal activity inhibition ratio (%), Abutilon theophrasti [1]","herbicidal activity inhibition ratio (%), Amaranthus retroflexus [2]","herbicidal activity inhibition ratio (%), Digitaria sanguinalis [3]","herbicidal activity inhibition ratio (%), Echinochloa crusgalli [4]","herbicidal activity inhibition ratio (%), Eclipta prostrata [5]","herbicidal activity inhibition ratio (%), Setaria viridis [6]"
Cn1c(=O)n(-c2c(Cl)cccc2Cl)c(=O)c2cc(C(=O)C3=C(O)CCCC3=O)ccc21 [Compound 32],80%,85%,80%,80%,50%,40%
Cc1ccc(Cl)cc1-n1c(=O)c2cc(C(=O)C3=C(O)CCCC3=O)ccc2n(C)c1=O [Compound 33],85%,90%,80%,85%,83%,60%
Cn1c(=O)n(-c2ccccc2)c(=O)c2cc(C(=O)C3=C(O)CCCC3=O)ccc21 [Compound 35],80%,100%,65%,65%,70%,50%
CC(C)c1ccc(-n2c(=O)c3cc(C(=O)C4=C(O)CCCC4=O)ccc3n(C)c2=O)cc1 [Compound 36],50%,35%,100%,25%,0%,50%
Cc1ccc(Cl)cc1-n1c(=O)c2cc(C(=O)C3=C(O)CC(C)(C)CC3=O)ccc2n(C)c1=O [Compound 37],65%,95%,83%,80%,80%,40%
Cn1c(=O)n(-c2ccccc2C(F)(F)F)c(=O)c2cc(C(=O)C3=C(O)CCCC3=O)ccc21 [Compound 38],90%,100%,85%,90%,75%,80%
Cn1c(=O)n(-c2ccccc2OC(F)(F)F)c(=O)c2cc(C(=O)C3=C(O)CCCC3=O)ccc21 [Compound 39],95%,98%,85%,70%,85%,80%
Cn1c(=O)n(-c2ccccc2)c(=O)c2cc(C(=O)C3=C(O)CC(C)(C)CC3=O)ccc21 [Compound 40],100%,95%,85%,78%,80%,45%
Cn1c(=O)n(-c2ccccc2C(F)(F)F)c(=O)c2cc(C(=O)C3=C(O)CC(C)(C)CC3=O)ccc21 [Compound 41],100%,95%,85%,73%,80%,25%
CC1CC(=O)C(C(=O)c2ccc3c(c2)c(=O)n(-c2ccccc2)c(=O)n3C)=C(O)C1 (stereo not drawn) [Compound 42],98%,100%,93%,88%,83%,60%
CCn1c(=O)n(-c2ccc(Cl)cc2)c(=O)c2cc(C(=O)C3=C(O)CCCC3=O)ccc21 [Compound 43],65%,98%,60%,80%,83%,50%
Cn1c(=O)n(-c2cccc3ccccc23)c(=O)c2cc(C(=O)C3=C(O)CCCC3=O)ccc21 [Compound 44],85%,100%,75%,65%,0%,60%
Cn1c(=O)n(-c2ccc([N+](=O)[O-])cc2)c(=O)c2cc(C(=O)C3=C(O)CCCC3=O)ccc21 [Compound 45],60%,90%,40%,50%,83%,10%
CC(C)c1cccc(C(C)C)c1-n1c(=O)c2cc(C(=O)C3=C(O)CCCC3=O)ccc2n(C)c1=O [Compound 46],35%,100%,55%,60%,70%,20%
COc1ccccc1-n1c(=O)c2cc(C(=O)C3=C(O)CC(C)(C)CC3=O)ccc2n(C)c1=O [Compound 48],50%,95%,85%,85%,85%,50%
Cn1c(=O)n(-c2ccc(OC(F)(F)F)cc2)c(=O)c2cc(C(=O)C3=C(O)CC(C)(C)CC3=O)ccc21 [Compound 49],100%,95%,90%,65%,80%,50%
Cn1c(=O)n(-c2ccc(OC(F)(F)F)cc2)c(=O)c2cc(C(=O)C3=C(O)CCCC3=O)ccc21 [Compound 50],50%,95%,60%,78%,80%,50%

# From patent US9771334B2, “Triketone compound and preparation method and use thereof” (SHANDONG CYNDA CHEMICAL CO., LTD., priority 2013, dated 2017)
